Measured values as given in PMC3723632, “A Multi-targeted Drug Candidate with Dual Anti-HIV and Anti-HSV Activity” (PLoS Pathogens, 2013).
In brackets after ≈: the same amount, converted by molar mass.

What was measured:
HSV-1 (RV-174) = assay: Virus yield reduction assay in HEL cells, HSV-1 clinical isolate; conditions: for EC90: Human alphaherpesvirus 1, HEL
Experimental: (§1) These assays were carried out in HEL cell monolayers at different times post infection. […] After 2 h at 37°C, the cells were washed and medium containing different concentrations of PMEO-DAPym (in duplicate) was added. Following 24, 48, and 72 h of incubation, we released the viruses by freeze-thawing and then titrated them using a plaque assay in HEL cells.

HSV-2 (NS and RV-194) = assay: Virus yield reduction assay in HEL cells, HSV-2 clinical isolates; conditions: for EC90: Human alphaherpesvirus 2, HEL
Experimental: as §1

Nc1cc(OCCOCP(=O)(O)O)nc(N)n1 [PMEO-DAPym, 6-phosphonylmethoxyethoxy-2,4-diaminopyrimidine]
EC90 (HSV-1 (RV-174); 24 h, RV-174, moi = 5x10^-3, 24 hours): < 1 µg/mL | EC90 (HSV-1 (RV-174); 24 h, RV-174, moi = 5x10^-4, 24 hours): 2.27 µg/mL (≈ 8.59 µM) | EC90 (HSV-1 (RV-174); 48 h, RV-174, moi = 5x10^-3, 48 hours): 1 µg/mL (≈ 3.79 µM) | EC90 (HSV-1 (RV-174); 48 h, RV-174, moi = 5x10^-4, 48 hours): < 1 µg/mL | EC90 (HSV-1 (RV-174); 72 h, RV-174, moi = 5x10^-3, 72 hours): 1 µg/mL (≈ 3.79 µM) | EC90 (HSV-1 (RV-174); 72 h, RV-174, moi = 5x10^-4, 72 hours): < 1 µg/mL | EC99 (HSV-1 (RV-174); RV-174, moi = 5x10^-3, 24 hours): 3.81 µg/mL | EC99 (HSV-1 (RV-174); RV-174, moi = 5x10^-3, 48 hours): 4.96 µg/mL | EC99 (HSV-1 (RV-174); RV-174, moi = 5x10^-3, 72 hours): 3.92 µg/mL | EC99 (HSV-1 (RV-174); RV-174, moi = 5x10^-4, 24 hours): 6.26 µg/mL | EC99 (HSV-1 (RV-174); RV-174, moi = 5x10^-4, 48 hours): 2.74 µg/mL | EC99 (HSV-1 (RV-174); RV-174, moi = 5x10^-4, 72 hours): 3.59 µg/mL | EC90 (HSV-2 (NS and RV-194); 24 h, Strain NS, moi = 1x10^-3, 24 hours): < 1 µg/mL | EC90 (HSV-2 (NS and RV-194); 24 h, Strain NS, moi = 1x10^-4, 24 hours): < 1 µg/mL | EC90 (HSV-2 (NS and RV-194); 24 h, Strain RV-194, moi = 1x10^-3, 24 hours): 2.08 µg/mL (≈ 7.87 µM) | EC90 (HSV-2 (NS and RV-194); 24 h, Strain RV-194, moi = 1x10^-4, 24 hours): < 1 µg/mL | EC90 (HSV-2 (NS and RV-194); 48 h, Strain NS, moi = 1x10^-3, 48 hours): < 1 µg/mL | EC90 (HSV-2 (NS and RV-194); 48 h, Strain NS, moi = 1x10^-4, 48 hours): < 1 µg/mL | EC90 (HSV-2 (NS and RV-194); 48 h, Strain RV-194, moi = 1x10^-3, 48 hours): < 1 µg/mL | EC90 (HSV-2 (NS and RV-194); 48 h, Strain RV-194, moi = 1x10^-4, 48 hours): < 1 µg/mL | EC90 (HSV-2 (NS and RV-194); 72 h, Strain NS, moi = 1x10^-3, 72 hours): 1.34 µg/mL (≈ 5.07 µM) | EC90 (HSV-2 (NS and RV-194); 72 h, Strain NS, moi = 1x10^-4, 72 hours): < 1 µg/mL | EC90 (HSV-2 (NS and RV-194); 72 h, Strain RV-194, moi = 1x10^-3, 72 hours): 1 µg/mL (≈ 3.79 µM) | EC90 (HSV-2 (NS and RV-194); 72 h, Strain RV-194, moi = 1x10^-4, 72 hours): < 1 µg/mL | EC99 (HSV-2 (NS and RV-194); Strain NS, moi = 1x10^-3, 24 hours): 3.0 µg/mL | EC99 (HSV-2 (NS and RV-194); Strain NS, moi = 1x10^-3, 48 hours): 3.28 µg/mL | EC99 (HSV-2 (NS and RV-194); Strain NS, moi = 1x10^-3, 72 hours): 3.63 µg/mL | EC99 (HSV-2 (NS and RV-194); Strain NS, moi = 1x10^-4, 24 hours): 3.6 µg/mL | EC99 (HSV-2 (NS and RV-194); Strain NS, moi = 1x10^-4, 48 hours): 1.0 µg/mL | EC99 (HSV-2 (NS and RV-194); Strain NS, moi = 1x10^-4, 72 hours): 2.3 µg/mL | EC99 (HSV-2 (NS and RV-194); Strain RV-194, moi = 1x10^-3, 24 hours): 7.15 µg/mL | EC99 (HSV-2 (NS and RV-194); Strain RV-194, moi = 1x10^-3, 48 hours): 1.0 µg/mL | EC99 (HSV-2 (NS and RV-194); Strain RV-194, moi = 1x10^-3, 72 hours): 3.58 µg/mL | EC99 (HSV-2 (NS and RV-194); Strain RV-194, moi = 1x10^-4, 24 hours): < 1 µg/mL | EC99 (HSV-2 (NS and RV-194); Strain RV-194, moi = 1x10^-4, 48 hours): 1.58 µg/mL | EC99 (HSV-2 (NS and RV-194); Strain RV-194, moi = 1x10^-4, 72 hours): 2.62 µg/mL
